The values below come from patent publication US6605722B2, “Tyrosine derivatives with anti-leukotrienen activity” (Rotta Research Laboratorium S.p.A., priority 2000, dated 2003).

Series [1] deals with T1, peptide-leukotriene receptor (Cavia porcellus, UniProt Q2NNR5).
T1 construct: from tissue; host or cells: guinea-pig lung membranes
T1 sequence (Q2NNR5 1-340): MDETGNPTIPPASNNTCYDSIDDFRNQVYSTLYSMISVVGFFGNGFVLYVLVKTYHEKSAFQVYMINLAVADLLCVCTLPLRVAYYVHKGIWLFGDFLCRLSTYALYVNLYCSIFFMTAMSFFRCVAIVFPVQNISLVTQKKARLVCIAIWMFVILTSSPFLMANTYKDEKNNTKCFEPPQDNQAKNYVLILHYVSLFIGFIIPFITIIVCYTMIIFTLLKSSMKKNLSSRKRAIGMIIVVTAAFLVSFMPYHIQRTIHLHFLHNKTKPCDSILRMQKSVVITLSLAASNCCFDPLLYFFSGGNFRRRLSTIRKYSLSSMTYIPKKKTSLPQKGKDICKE
Kind of series: Inhibition of the binding of [3H]-LTD4 to guinea-pig lung membranes. The settings on record: for IC50: 0.3 nM [3H]-LTD4, guinea-pig lung membranes, 30 minutes at 25° C., read-out: IC50, concentration of antagonist displacing 50% of the [3H]-LTD4 ligand from the receptor; for affinity compared with the specific LTD4 agonist: guinea-pig lung membranes, nanomolar level. As for the experimental part: The method described by Frey et al. [Eur. J. Pharmacol. 244 (1993): 239-250] was followed, with slight modifications.
The separation of the bound from the free was performed by rapid filtration on Whatman GF/B paper filters.

Series [2] can be described thus: Plasma levels in rats (oral bio-availability). It counts as in vivo. The settings on record: 20 mg/kg. The method, then: In addition to the potency shown in vitro in the models given by way of example above, an advantageous and important characteristic of the compounds of the present invention is their optimal oral bio-availability. Thus, for example, Compound 1, administered to rats at a dose of 20 mg/kg, provided a maximum plasma concentration (CMAX) of about 20 mcg/ml 1 hour after administration.

Series [3] concerns contractions induced by LTD4 on isolated guinea-pig trachea. As to the kind of experiment: Antagonism of contractions induced by LTD4 on isolated guinea-pig trachea in vitro (Schild analysis). The settings on record: for pA2 calculated according to Schild: LTD4 contraction; for pA2 calculated according to Schild / ED50 of LTD4 (cumulative dose-response curve): isolated guinea-pig trachea. As for the experimental part: J. Physiol. Pharmacol. 67 (1989): 17-28], with slight modifications. […] The results were expressed as the effect as a percentage of the maximum contraction induced by 300 μM acetylcholine.

Series [4] deals with sensitized guinea-pigs (ovalbumin challenge). Kind of series: Bronchoconstriction after aerosolized ovalbumin challenge in sensitized guinea-pigs. It counts as in vivo. The settings on record: 0.3 mg/kg orally 30 minutes before aerosolized ovalbumin challenge.
Series [5] can be described thus: Acute toxicity (LD50) in mice. It counts as in vivo. The settings on record: mouse, in vivo. The source says:
(§1) The compounds according to the invention also have a low toxicity profile.

In another series the test system is mice. As to the kind of experiment: Acute toxicity (LD50) in mice. The format is in vivo. The settings on record: oral route; effective dose 0.3 mg/kg.
Description: as §1

Where [6] appears, read: antagonist concentration 100 nM.

Counter-ions that a name gives are not always drawn.

`O=C(N[C@H](Cc1ccc(OCc2ccc3ccc(F)cc3n2)cc1)C(=O)O)c1ccc2ccccc2n1` [Compound 19, O-(7-fluoro-2-quinolinylmethyl)-N-quinaldoyl-D-tyrosine]: in series [1], the IC50 amounted to 12.2 nM.

Consider `O=C(NC(Cc1ccc(OCc2ccc3ccccc3n2)cc1)C(=O)O)c1ccccn1` (stereo not shown) [Compound 10], for which the melting point amounted to 171 °C. Also, the IC50 in series [1] turned out to be 32.3 nM.

The molecule `O=C(NC(Cc1ccc(OCc2ccc3ccccc3n2)cc1)C(=O)O)c1ccc(Cl)cc1` (stereo not shown) [Compound 3] displayed a melting point of 197 °C. Moreover, the IC50 in series [1] came to 98.1 nM.

Turning to `O=C(NC(Cc1ccc(OCc2ccc3ccccc3n2)cc1)C(=O)O)c1cccc2cccnc12` (stereo not shown) [Compound 14], the melting point is 141 °C (dec.). Moreover, the IC50 in series [1] was 64 nM.

Molecule `O=C(NC(Cc1ccc(OCc2ccc3ccccc3n2)cc1)C(=O)O)c1ccc2ccccc2c1` (stereo not shown) [Compound 11] had a melting point of 196 °C. Also, the IC50 in series [1] came out at 39 nM.

With `COc1ccc(C(=O)NC(Cc2ccc(OCc3ccc4ccccc4n3)cc2)C(=O)O)cc1` (stereo not shown) [Compound 5], the melting point is 212 °C. Also, in series [1], the IC50 was 117 nM.

With `O=C(NC(Cc1ccc(OCc2ccc3ccccc3n2)cc1)C(=O)O)c1ccccc1-c1ccccc1` (stereo not shown) [Compound 7], the melting point came to 155 °C. Moreover, the IC50 in series [1] is 181 nM.

Molecule `O=C(NC(Cc1ccc(OCc2ccc3ccccc3n2)cc1)C(=O)O)c1ccc(-c2ccccc2)cn1` (stereo not shown) [Compound 30] came in with a melting point of 170 °C. The IC50 in series [1] turned out to be 24.1 nM.

For the molecule `Cn1c(C(=O)NC(Cc2ccc(OCc3ccc4ccccc4n3)cc2)C(=O)O)cc2ccccc21` (stereo not shown) [Compound 25], the melting point is 198 °C. For the same molecule, the IC50 in series [1] worked out at 34.8 nM.

`O=C(NC(Cc1ccc(OCc2ccc3ccc(Cl)cc3n2)cc1)C(=O)O)c1ccc(-c2ccccc2)cc1` (stereo not shown) [Compound 9]: the melting point stood at 193 °C. Moreover, in series [1], the IC50 came to 217 nM.

Regarding `O=C(NC(Cc1ccc(OCc2ccc3ccccc3n2)cc1)C(=O)O)c1ccc2ncccc2c1` (stereo not shown) [Compound 13], the melting point worked out at 248 °C. In series [1], the IC50 was found to be 135 nM.

For the molecule `O=C(NC(Cc1ccc(OCc2ccc3ccccc3n2)cc1)C(=O)O)c1ccc(-c2ccccc2)cc1` (stereo not shown) [Compound 8], the IC50 in series [1] turned out to be 61.7 nM.

As for `O=C(N[C@@H](Cc1ccc(OCc2ccc3ccc(F)cc3n2)cc1)C(=O)O)c1ccc2ccccc2n1` [Compound 18, O-(7-fluoro-2-quinolinylmethyl)-N-quinaldoyl-L-tyrosine], in series [1], the IC50 worked out at 5.5 nM and the “affinity compared with the specific LTD4 agonist” value was “comparable”.

Molecule `O=C(NC(Cc1ccc(OCc2ccc3ccccc3n2)cc1)C(=O)O)c1nccc2ccccc12` (stereo not shown) [Compound 20] came in with a melting point of 157 °C. Also, the IC50 in series [1] is 64.1 nM.

`O=C(NC(Cc1ccc(OCc2ccc3ccccc3n2)cc1)C(=O)O)c1ccc2ccccc2n1` (racemic) [Compound 1, O-(2-quinolinylmethyl)-N-quinaldoyl-D,L-tyrosine]: in series [1], the IC50 was determined as 20 nM. In series [2], the “time of maximum plasma concentration after administration” value is 1 h. Also, in series [2] (rat, plasma, oral), the exposure (AUC) is roughly 50000 ng·h/mL. In addition, the concentration at 8 h in series [2] (rat, plasma, oral, 8 h, read-out: plasma concentration 8 h after administration) is greater than 2000 ng/mL. In addition, the Cmax in series [2] (rat, plasma, oral, read-out: maximum plasma concentration (CMAX)) is roughly 20000 ng/mL. For the same molecule, the “pA2 calculated according to Schild” value in series [3] is “pA2 = 7.88”. The figures for the “ED50 of LTD4 (cumulative dose-response curve)” value (“ED50 of LTD4” below) in series [3] (antagonist concentration 10 nM), in series [3] (antagonist concentration 30 nM) and in series [3] (setting [6]) were 4.53 nM, 15.31 nM and 31.75 nM, respectively.

`O=C(NC(Cc1ccc(OCc2ccc3ccc(F)cc3n2)cc1)C(=O)O)c1cc2ccccc2cn1` (stereo not shown) [Compound 22] showed a melting point of 227 °C. Also, in series [1], the IC50 amounted to 5.3 nM and the “affinity compared with the specific LTD4 agonist” value is “comparable”. Further, the antagonist equilibrium constant (Kb) in series [3] (Cavia porcellus, equivalent to the calculated pA2) is 1.73 nM. For the same molecule, the “ED50 of LTD4” value in series [3] (antagonist concentration 10 nM) was 8.03 nM. In addition, in series [3] (antagonist concentration 30 nM), the “ED50 of LTD4” value was 13.71 nM. Besides, in series [3] (setting [6]), the “ED50 of LTD4” value stood at 25.39 nM.

`O=C(NC(Cc1ccc(OCc2ccc3ccccc3n2)cc1)C(=O)O)c1cc2ccccc2[nH]1` (stereo not shown) [Compound 23] yielded a melting point of 223 °C. The IC50 in series [1] was found to be 103 nM.

Molecule `O=C(NC(Cc1ccc(OCc2ccc3ccccc3n2)cc1)C(=O)O)c1cnc2ccccc2c1` (stereo not shown) [Compound 12] yielded a melting point of 230 °C. For the same molecule, the IC50 in series [1] is 76 nM.

Take `O=C(NC(Cc1ccc(OCc2ccc3ccccc3n2)cc1)C(=O)O)c1ccnc2ccccc12` (stereo not shown) [Compound 16]: the melting point came to 224 °C. Besides, the IC50 in series [1] was 200 nM.

Molecule `O=C(NC(Cc1ccc(OCc2ccc3ccccc3n2)cc1)C(=O)O)c1cnc2ccccc2n1` (stereo not shown) [Compound 27] returned a melting point greater than 240 °C. The IC50 in series [1] was found to be 161 nM.

For `O=C(NC(Cc1ccc(OCc2ccc3ccccc3n2)cc1)C(=O)O)c1c[nH]c2ccccc12` (stereo not shown) [Compound 24], the melting point is 226 °C. Also, in series [1], the IC50 was 55.3 nM.

As for `O=C(NC(Cc1ccc(OCc2ccc3ccccc3n2)cc1)C(=O)O)c1cnnc2ccccc12` (stereo not shown) [Compound 28], the melting point stood at 232 °C. The IC50 in series [1] is greater than 300 nM.

As to `O=C(NC(Cc1ccc(OCc2ccc3ccccc3n2)cc1)C(=O)O)c1ccc(C(F)(F)F)cc1` (stereo not shown) [Compound 6], the melting point was 211 °C. The IC50 in series [1] was 42.7 nM.

For the molecule `O=C(NC(Cc1ccc(OCc2ccc3ccccc3n2)cc1)C(=O)O)c1cccc(Cl)c1` (stereo not shown) [Compound 4], the melting point worked out at 187 °C. The IC50 in series [1] stood at 110 nM.

Turning to `O=C(NC(Cc1ccc(OCc2ccc3ccccc3n2)cc1)C(=O)O)c1ccccc1` (stereo not shown) (as salt: hydrochloride) [Compound 2], the melting point is 140 °C.

In the case of `O=C(NC(Cc1ccc(OCc2ccc3ccccc3n2)cc1)C(=O)O)c1ccc(-c2ccccc2)cc1` (stereo not shown) (as salt: hydrochloride) [Compound 8], the melting point is 230 °C (dec.).

The molecule `Cn1cc(C(=O)NC(Cc2ccc(OCc3ccc4ccccc4n3)cc2)C(=O)O)c2ccccc21` (stereo not shown) [Compound 26] returned a melting point of 180 °C. The IC50 in series [1] came to 50.8 nM.

`O=C(NC(Cc1ccc(OCc2ccc3ccccc3n2)cc1)C(=O)O)c1ccc2nc[nH]c2c1` (stereo not shown) [Compound 29] had a melting point greater than 250 °C. Further, in series [1], the IC50 is 90.3 nM.

Molecule `Cc1ccc2ccc(COc3ccc(CC(NC(=O)c4ccc5ccccc5n4)C(=O)O)cc3)nc2c1` (stereo not shown) [Compound 15] returned a melting point of 214 °C. Besides, the IC50 in series [1] was 11.3 nM.

For the molecule `O=C(NC(Cc1ccc(OCc2ccc3ccccc3n2)cc1)C(=O)O)c1cc2ccccc2cn1` (stereo not shown) [Compound 21], the melting point turned out to be 204 °C. The IC50 in series [1] worked out at 9.7 nM.

As to `O=C(NC(Cc1ccc(OCc2ccc3ccc(F)cc3n2)cc1)C(=O)O)c1ccc2ccccc2n1` (racemic) [Compound 17, O-(7-fluoro-2-quinolinylmethyl)-N-quinaldoyl-D,L-tyrosine], the IC50 in series [1] is 7.9 nM. For the same molecule, the “affinity compared with the specific LTD4 agonist” value in series [1] is recorded as “comparable”. Besides, the “inhibition of the signs of bronchoconstriction (first appearance of abdominal contractions)” value in series [4] is given as “completely inhibited”. Moreover, the median lethal dose (LD50) was greater than 50 mg/kg in series [5] (iv) and greater than 300 mg/kg in series [5] (po). Also, in the series with mice, the “acute toxic oral dose in mice relative to the pharmacologically effective dose” value is “more than 1000 times”. In addition, in series [3], the “pA2 calculated according to Schild” value was “pA2 = 8.53”. For the same molecule, the “ED50 of LTD4” value in series [3] (antagonist concentration 3 nM) is recorded as 4.69 nM; in series [3] (antagonist concentration 30 nM), 9.48 nM; in series [3] (antagonist concentration 300 nM), 19.78 nM.

As to `O=C(NC(Cc1ccc(OCc2ccc3ccccc3n2)cc1)C(=O)O)c1ccccc1` (stereo not shown) [Compound 2], the IC50 in series [1] stood at 190 nM.
